According to article PMC6953607 (Nature microbiology, 2019):
Values after ≈ are worked out from the molar mass of the structure shown. One block for each compound: values may come before it.

How the values were obtained:
Mouse MTD = type: in vivo, C57BL/6 mice; conditions: IP, mice monitored 2 weeks
E. cloacae = assay: MIC, micro-dilution broth; type: cell-based; conditions: E. cloacae ATCC 29893
K. pneumoniae = assay: MIC, micro-dilution broth; type: cell-based
A. baumannii = assay: MIC, micro-dilution broth; type: cell-based
P. aeruginosa PA01 = assay: MIC, micro-dilution broth; type: cell-based
[1] = system: E. coli MG1655 harboring FabI variants; assay: MIC against Debio-1452-NH3-resistant colonies; type: cell-based
S. aureus ATCC29213 = assay: MIC, micro-dilution broth; type: cell-based
E. coli = assay: MIC, micro-dilution broth; type: cell-based; conditions: Escherichia coli, E. coli strains with intact outer membranes
E. coli MG1655 = assay: Accumulation assay, LC-MS/MS; type: cell-based; conditions: E. coli MG1655, 50 μM compound, up to 2 h
S. aureus = conditions: cited from earlier work
[2] = open-label clinical trial ref 26; cited from earlier work

SMILES: Cc1c(CN(C)C(=O)/C=C/c2cnc3c(c2)CC(CCN)C(=O)N3)oc2ccccc12.Cl (stereo not drawn) [Compound 3]
- well tolerated single dose (Mouse MTD): 100 mg/kg

- MIC (E. cloacae): >32 µg/mL
- MIC (K. pneumoniae; K. pneumoniae S47889): >32 µg/mL
- MIC (K. pneumoniae; Klebsiella pneumoniae, BAA1705, K. pneumoniae BAA-1705): > 32 µg/mL
- MIC (A. baumannii; A. baumannii W41979): >32 µg/mL
- MIC (A. baumannii; Acinetobacter baumannii, A. baumannii F19521): > 32 µg/mL
- MIC (P. aeruginosa PA01): >32 µg/mL
SMILES: Cc1c(CN(C)C(=O)/C=C/c2cnc3c(c2)CC(NC(=O)OC(C)(C)C)C(=O)N3)oc2ccccc12 (stereo not drawn) [Compound 8]

SMILES: Oc1cc(Cl)ccc1Oc1ccc(Cl)cc1Cl [Triclosan]
- cross-resistance ([1]; A116V mutants resistant to Debio-1452-NH3): no cross-resistance
- cross-resistance ([1]; G148S mutants resistant to Debio-1452-NH3): minimal cross-resistance

SMILES: Cc1c(CN(C)C(=O)/C=C/c2cnc3c(c2)CCC(=O)N3)oc2ccccc12 [Debio-1452]
- MIC (S. aureus ATCC29213; S. aureus ATCC 29213): 0.008 µg/mL (≈ 0.0213 µM)
- fold increase in MIC in the presence of serum (S. aureus ATCC29213; S. aureus, human serum): 8 fold
- MIC (E. coli): > 32 µg/mL
- MIC (E. cloacae): >32 µg/mL
- MIC (K. pneumoniae; K. pneumoniae BAA-1705): >32 µg/mL
- MIC (K. pneumoniae; K. pneumoniae S47889): >32 µg/mL
- MIC (A. baumannii; A. baumannii F19521): >32 µg/mL
- MIC (A. baumannii; A. baumannii W41979): >32 µg/mL
- MIC (P. aeruginosa PA01): >32 µg/mL
- accumulation (E. coli MG1655): no statistically significant accumulation over negative controls
- efficacy in animal models of S. aureus infections (S. aureus): marked efficacy
- efficacy in patients [2]: marked efficacy
